# Data taken from US8372598B2 (priority 2010, dated 2013).
# Legend:
# Co-2164 = experiment: microbe, parasite or virus in culture; format: cell-based, Clostridium
# Co-5673 = experiment: microbe, parasite or virus in culture; format: cell-based, Clostridium
# strain Co-1533 = experiment: MIC for NaCl; format: cell-based, Clostridium species; conditions: NaCl MIC determination
# mutant 11301 = experiment: Growth on agar plates with varying NaCl; format: cell-based, Clostridium; conditions: for CFU/ml: 48 hours
# strain Co-9064 = experiment: MIC for NaCl; format: cell-based, Clostridium species; conditions: NaCl MIC determination
# mutant 10256 = experiment: Growth on agar plates with varying NaCl; format: cell-based, Clostridium; conditions: for CFU/ml: 48 hours
# strain Co-6232 = experiment: MIC for NaCl; format: cell-based, Clostridium species; conditions: NaCl MIC determination
# [1] = test system: mutants of Co-9064 selected as in Example 1; experiment: Salt MIC / growth on NaCl plates, salt selection mutants as a group; format: cell-based, Clostridium
# [2] = test system: parent Clostridium strain; experiment: Growth on agar plates with varying NaCl; format: cell-based; conditions: for CFU/ml: 48 hours
# mutant 10277 = experiment: Growth on agar plates with varying NaCl; format: cell-based, Clostridium; conditions: for CFU/ml: 48 hours
# mutant 11303 = experiment: Growth on agar plates with varying NaCl; format: cell-based, Clostridium; conditions: for CFU/ml: 48 hours
# [3] = test system: mutants of Co-9064 selected as in Example 1; conditions: grown at increasing concentrations of butanol, FIGS. 2A and 2B
# parent = conditions: OD600, parent
# [4] = Clostridium, 40 min, read-out: Survival (% of control)
compound,measurement,setting,value
"CCOS(C)(=O)=O [EMS, ethyl methane sulfonate]",Survival (count),Co-2164,5.8 × 10^6 (14%)
same,higher survival rate in comparison to Co-5673,Co-2164,10%
same,activity at 30 µg/mL,Co-2164; [4],14%
same,Survival (count),"Co-5673; 30 μg/ml EMS, 40 minutes, 32° C., Co-5673",3.8 × 10^6
same,activity at 30 µg/mL,Co-5673; [4],4%
"[Cl-].[Na+] [NaCl, sodium chloride]",highest concentration at which growth was observed,strain Co-1533,275 mM
same,CFU/ml,mutant 11301; NaCl 350 mM,lawn
same,CFU/ml,mutant 11301; NaCl 400 mM,lawn
same,CFU/ml,mutant 11301; NaCl 425 mM,220 CFU/ml
same,CFU/ml,mutant 11301; NaCl 450 mM,30 CFU/ml
same,CFU/ml,mutant 11301; NaCl 475 mM,0 CFU/ml
same,grew on plates containing up to,"mutant 11301; NaCl plates, mutant 11301",450 mM
same,highest concentration at which growth was observed,strain Co-9064,300 mM
same,CFU/ml,mutant 10256; NaCl 350 mM,lawn
same,CFU/ml,mutant 10256; NaCl 400 mM,lawn
same,CFU/ml,mutant 10256; NaCl 425 mM,480 CFU/ml
same,CFU/ml,mutant 10256; NaCl 450 mM,20 CFU/ml
same,CFU/ml,mutant 10256; NaCl 475 mM,0 CFU/ml
same,grew on plates containing up to,"mutant 10256; NaCl plates, mutant 10256",450 mM
same,highest concentration of salt at which growth was observed,strain Co-6232,325 mM
same,increase of salt tolerance (salt MIC) compared to the parent strain,[1]; mutants versus parent,more than 100 mM
same,growth up to,"[1]; solid medium, four of the mutants",450 mM
same,CFU/ml,[2]; NaCl 350 mM,6000 CFU/ml
same,CFU/ml,[2]; NaCl 400 mM,0 CFU/ml
same,CFU/ml,[2]; NaCl 425 mM,0 CFU/ml
same,CFU/ml,[2]; NaCl 450 mM,0 CFU/ml
same,CFU/ml,[2]; NaCl 475 mM,0 CFU/ml
same,grew on plates containing up to,"[2]; NaCl plates, parent strain",325 mM
same,no growth at this NaCl concentration and higher,"[2]; solid medium, parent",≥ 400 mM
same,CFU/ml,mutant 10277; NaCl 350 mM,lawn
same,CFU/ml,mutant 10277; NaCl 400 mM,lawn
same,CFU/ml,mutant 10277; NaCl 425 mM,2930 CFU/ml
same,CFU/ml,mutant 10277; NaCl 450 mM,150 CFU/ml
same,CFU/ml,mutant 10277; NaCl 475 mM,0 CFU/ml
same,grew on plates containing up to,"mutant 10277; NaCl plates, mutant 10277",450 mM
same,CFU/ml,mutant 11303; NaCl 350 mM,lawn
same,CFU/ml,mutant 11303; NaCl 400 mM,lawn
same,CFU/ml,mutant 11303; NaCl 425 mM,800 CFU/ml
same,CFU/ml,mutant 11303; NaCl 450 mM,10 CFU/ml
same,CFU/ml,mutant 11303; NaCl 475 mM,0 CFU/ml
same,grew on plates containing up to,"mutant 11303; NaCl plates, mutant 11303",450 mM
n-butanol,butanol tolerance compared to the parent strain,[3],improved butanol tolerance
same,% improvement,mutant #1,20.89%
same,% of added n-butanol (v/v) at 50% inhibition,mutant #1,1.18 % (v/v)
same,% improvement,mutant #2,69.96%
same,% of added n-butanol (v/v) at 50% inhibition,mutant #2,1.66 % (v/v)
same,% of added n-butanol (v/v) at 50% inhibition,parent,0.98 % (v/v)
